Results on two molecules are retold here after paper PMC7838058 (Acta Pharmaceutica Sinica. B, 2020).

Molecules are shown by their SMILES.

One series can be described thus: in vitro. The note with it: human, Caco-2.
The subject of another series is SD rats. The note with it: 100 mg/kg by gavage every 8 h for 7 days, means ± SEM, n = 8.

Regarding `COCCc1ccc(OCC(O)CNC(C)C)cc1` (centres unmarked) [metoprolol], the Papp A→B at 120 min, 2 μmol/L in “in vitro” came to 13.1 ± 0.65 ×10⁻⁶ cm/s. On to `CC(=O)Nc1ccc(NC(=O)c2ccc([N+](=O)[O-])o2)cc1` [1H, N-(4-Acetamidophenyl)-5-nitrofuran-2-carboxamide], for which, in the series with SD rats, the “Serum Cl” value is 101.7 ± 1.3 mmol/L.
